# According to ChEMBL document CHEMBL1909046, “DrugMatrix in vitro pharmacology data”:
# Key:
# Melanocortin receptor 5 = Melanocortin receptor 5 (Homo sapiens, UniProt P33032); type: cell membranes, HEK293, Membrane; settings: hek293; further: in other assays of this panel Not Active means under 50% inhibition at 10 µM
# [1] = DRUGMATRIX: ATPase, Na+/K+ enzyme inhibition (substrate: ATP); type: tissue-based, Sus scrofa, Heart; settings: Not Active = under 50% inhibition at 10 µM
# [2] = biological target: Aldo-keto reductase family 1 member B1 (Rattus norvegicus, UniProt P07943); test: biochemical; type: tissue-based, Lens of camera-type eye;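 further: inhibition of aldose reductase enzyme activity, measured with DL-glyceraldehyde as the substrate; in other assays of this panel Not Active means under 50% inhibition at 10 µM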
# Thromboxane-A synthase = biological target: T1, Thromboxane-A synthase (Homo sapiens, UniProt P24557); test: biochemical; type: tissue-based, Platelet;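 further: enzyme inhibition assay with PGH2 supplied as substrate; in other assays of this panel Not Active means under 50% inhibition at 10 µM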
# T1 sequence (P24557 whole entry): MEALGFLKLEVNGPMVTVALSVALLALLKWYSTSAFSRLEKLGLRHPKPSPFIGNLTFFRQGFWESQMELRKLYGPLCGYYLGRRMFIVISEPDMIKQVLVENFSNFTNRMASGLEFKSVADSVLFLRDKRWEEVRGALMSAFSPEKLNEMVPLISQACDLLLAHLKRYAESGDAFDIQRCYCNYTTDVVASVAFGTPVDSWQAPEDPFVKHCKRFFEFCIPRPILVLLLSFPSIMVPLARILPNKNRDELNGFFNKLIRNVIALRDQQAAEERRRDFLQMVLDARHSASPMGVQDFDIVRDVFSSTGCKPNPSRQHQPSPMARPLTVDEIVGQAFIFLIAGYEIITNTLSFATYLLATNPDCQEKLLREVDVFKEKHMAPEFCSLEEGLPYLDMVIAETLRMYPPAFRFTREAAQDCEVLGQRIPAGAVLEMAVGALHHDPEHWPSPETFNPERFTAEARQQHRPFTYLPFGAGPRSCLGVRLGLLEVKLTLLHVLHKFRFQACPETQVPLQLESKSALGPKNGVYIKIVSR
# [3] = biological target: 5-hydroxytryptamine receptor 1B (Rattus norvegicus, UniProt P28564); type: cell membranes, Wistar, Cerebral cortex, Membrane; further: in other assays of this panel Not Active means under 50% inhibition at 10 µM
# [4] = biological target: T2, 5-hydroxytryptamine receptor 1A (Rattus norvegicus, UniProt P19327); type: cell membranes, CHO-K1, Membrane; settings: cho-k1; further: in other assays of this panel Not Active means under 50% inhibition at 10 µM
# T2 sequence (P19327 whole entry): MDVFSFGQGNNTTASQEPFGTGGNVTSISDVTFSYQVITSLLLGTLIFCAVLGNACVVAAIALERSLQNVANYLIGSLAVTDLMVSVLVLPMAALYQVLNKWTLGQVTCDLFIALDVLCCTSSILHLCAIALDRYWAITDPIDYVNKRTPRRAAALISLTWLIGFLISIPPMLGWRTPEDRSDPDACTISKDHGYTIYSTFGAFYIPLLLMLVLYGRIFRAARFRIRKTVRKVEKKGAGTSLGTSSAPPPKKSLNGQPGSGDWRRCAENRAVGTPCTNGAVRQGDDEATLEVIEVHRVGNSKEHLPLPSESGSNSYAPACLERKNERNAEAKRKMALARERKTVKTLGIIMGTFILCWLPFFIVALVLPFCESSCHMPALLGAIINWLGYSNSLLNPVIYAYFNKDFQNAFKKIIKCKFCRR
# 5-hydroxytryptamine receptor 1B, sequence (P28564 whole entry): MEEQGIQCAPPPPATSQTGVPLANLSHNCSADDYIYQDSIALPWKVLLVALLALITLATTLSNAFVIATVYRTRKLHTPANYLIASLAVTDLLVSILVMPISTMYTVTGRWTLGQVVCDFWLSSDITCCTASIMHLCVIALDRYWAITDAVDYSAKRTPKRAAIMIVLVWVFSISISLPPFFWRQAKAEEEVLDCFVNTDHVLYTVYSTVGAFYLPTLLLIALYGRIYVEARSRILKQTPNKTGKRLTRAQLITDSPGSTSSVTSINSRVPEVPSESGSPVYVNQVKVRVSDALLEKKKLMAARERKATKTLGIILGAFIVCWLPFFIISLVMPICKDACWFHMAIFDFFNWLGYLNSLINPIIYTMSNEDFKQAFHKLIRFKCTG
# Melanocortin receptor 5, sequence (P33032 whole entry): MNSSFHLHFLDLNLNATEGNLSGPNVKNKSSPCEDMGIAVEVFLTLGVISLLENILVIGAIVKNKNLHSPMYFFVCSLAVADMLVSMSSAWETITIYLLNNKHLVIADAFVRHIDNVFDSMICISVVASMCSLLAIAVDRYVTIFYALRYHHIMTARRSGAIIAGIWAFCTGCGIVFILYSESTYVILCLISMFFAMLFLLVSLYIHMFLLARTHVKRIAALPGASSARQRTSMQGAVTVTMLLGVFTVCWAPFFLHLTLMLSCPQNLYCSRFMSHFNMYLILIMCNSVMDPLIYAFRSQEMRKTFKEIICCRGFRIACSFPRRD
Molecule,IC50 (Melanocortin receptor 5),IC50 [1],Ki [1],IC50 [2],IC50 (Thromboxane-A synthase; platelet),IC50 [3],IC50 [4],IC50 (Thromboxane-A synthase; read-out: IC50) [µM],Ki (Melanocortin receptor 5),Ki [2],Ki (Thromboxane-A synthase; platelet),Ki [3],Ki [4]
CC(=O)O[C@H]1C[C@@H]2CC[C@@H]3[C@H](CC[C@@]4(C)[C@H]3C[C@H]([N+]3(C)CCCCC3)[C@@H]4OC(C)=O)[C@@]2(C)C[C@@H]1N1CCCCC1.[Br-] [VECURONIUM BROMIDE],Not Active,Not Active,Not Active,Not Active,Not Active,Not Active,Not Active,,,,,,
COc1cc(C(=O)NS(=O)(=O)c2ccccc2C)ccc1Cc1cn(C)c2ccc(NC(=O)OC3CCCC3)cc12 [ZAFIRLUKAST],Not Active,Not Active,Not Active,Not Active,,Not Active,Not Active,3.81,,,,,
Cc1cn([C@H]2C[C@H](N=[N+]=[N-])[C@@H](CO)O2)c(=O)[nH]c1=O [ZIDOVUDINE],Not Active,Not Active,Not Active,Not Active,Not Active,Not Active,Not Active,,,,,,
STANNOUS FLUORIDE,Not Active,Not Active,Not Active,Not Active,Not Active,Not Active,Not Active,,Not Active,Not Active,Not Active,Not Active,Not Active
THIMEROSAL,Not Active,Not Active,Not Active,Not Active,Not Active,Not Active,Not Active,,Not Active,Not Active,Not Active,Not Active,Not Active
